Read-outs that look alike come from different tables or passages of the source.
Target: T1, HCV NS3-4A serine protease (full-length NS3-4A protein, genotype 1a, strain HCV-1) (Hepatitis C virus genotype 1a, UniProt P26664)
T1 construct: using the full-length NS3-4A protein (genotype 1a, strain HCV-1)
Test: HCV NS3-4A protease assay
Format: biochemical
Experimental: The inhibitory activity of certain compounds of Table A against HCV NS3-4A serine protease is determined in a homogenous assay using the full-length NS3-4A protein (genotype 1a, strain HCV-1) and a commercially available internally-quenched fluorogenic peptide substrate as described by Taliani, M., et al. 1996 Anal. Biochem. 240:60-67, which is incorporated by reference in its entirety.

T1 sequence (P26664 1658-1711): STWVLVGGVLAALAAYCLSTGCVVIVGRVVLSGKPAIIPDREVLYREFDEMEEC
T1 sequence (P26664 1027-1657): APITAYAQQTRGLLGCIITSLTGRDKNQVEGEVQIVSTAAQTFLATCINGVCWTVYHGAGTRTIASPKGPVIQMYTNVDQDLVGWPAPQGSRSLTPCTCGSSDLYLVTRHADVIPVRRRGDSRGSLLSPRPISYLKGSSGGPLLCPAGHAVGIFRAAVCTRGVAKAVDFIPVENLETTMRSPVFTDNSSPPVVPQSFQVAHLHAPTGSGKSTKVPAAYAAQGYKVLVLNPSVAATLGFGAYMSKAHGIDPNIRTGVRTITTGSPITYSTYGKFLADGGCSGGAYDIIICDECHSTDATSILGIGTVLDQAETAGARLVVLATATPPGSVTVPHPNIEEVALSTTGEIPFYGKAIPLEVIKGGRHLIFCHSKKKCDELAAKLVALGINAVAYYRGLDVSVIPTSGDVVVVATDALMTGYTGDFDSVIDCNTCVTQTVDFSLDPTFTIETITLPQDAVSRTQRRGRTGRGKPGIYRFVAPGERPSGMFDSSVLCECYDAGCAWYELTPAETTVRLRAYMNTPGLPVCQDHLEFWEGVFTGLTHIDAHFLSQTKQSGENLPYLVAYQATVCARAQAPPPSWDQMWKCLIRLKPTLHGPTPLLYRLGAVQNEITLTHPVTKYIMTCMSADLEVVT

Row | SMILES | IC50 (read-out: Protease IC50) [nM] | IC50 (Protease IC50) [nM]
1 | C=C[C@@H]1C[C@]1(NC(=O)[C@@H]1C[C@@]2(CN1C(=O)[C@@H](NC(=O)[C@@H](NC(=O)c1c[nH]c(=O)[nH]1)C(C)(C)C)C(C)(C)C)C(C)(C)C21CCC1)C(=O)NS(=O)(=O)C1CC1 [Compound 44, (5R,8S)-N-{(1R,2S)-1-[(cyclopropylsulfonyl)carba-moyl]-2-vinylcyclopropyl}-7-[(2S)-2-{[(2S)-3,3-dimethyl-2-{[(2-oxo-2,3-dihydro-1H-imidazol-4-yl)carbonyl]amino}butanoyl]amino}-3,3-dimethylbutanoyl]-10,10-dimethyl-7-azadispiro[3.0.4.1]decane-8-carboxamide] | – | 2
2 | C=C[C@@H]1C[C@]1(NC(=O)[C@@H]1C[C@@]2(CN1C(=O)[C@@H](NC(=O)[C@@H](CC(=O)OC(C)(C)C)C(C)(C)C)C(C)(C)C)C(C)(C)C21CCC1)C(=O)NS(=O)(=O)C1CC1 [Compound 45, tert-butyl (3S)-3-{[(1S)-1-{[(5R,8S)-8-({(1R,2S)-1-[(cyclopropylsulfonyl)carba-moyl]-2-vinylcyclopropyl}carbamoyl)-10,10-dimethyl-7-azadispiro[3.0.4.1]dec-7-yl]carbonyl}-2,2-dimethylpropyl]carbamoyl}-4,4-dimethylpentanoate] | 65 | –
3 | C=C[C@@H]1C[C@]1(NC(=O)[C@@H]1C[C@@]2(CN1C(=O)[C@@H](NC(=O)[C@H]1NC(=O)[C@@H]3CCCCN3CCCCCCC1(C)C)C(C)(C)C)C(C)(C)C21CCC1)C(=O)NS(=O)(=O)C1CC1 [Compound 53, (5R,8S)-N-{(1R,2S)-1-[(cyclopropylsulfonyl)carba-moyl]-2-vinylcyclopropyl}-7-[(2S)-2-({[(3S,15aS)-4,4-dimethyl-1-oxotetradecahydro-2H-pyrido[1,2-a][1,4]diazacyclododecin-3-yl]carbonyl}amino)-3,3-dimethylbutanoyl]-10,10-dimethyl-7-azadispiro[3.0.4.1]decane-8-carboxamide] | – | 3.5
4 | C=C[C@@H]1C[C@]1(NC(=O)[C@@H]1C[C@@]2(CN1C(=O)[C@@H](NC(=O)c1cocn1)C(C)(C)C)C(C)(C)C21CCC1)C(=O)NS(=O)(=O)C1CC1 [Compound 54, (5R,8S)-N-{(1R,2S)-1-[(cyclopropylsulfonyl)carba-moyl]-2-vinylcyclopropyl}-7-{(2S)-3,3-dimethyl-2-[(1,3-oxazol-4-ylcarbonyl)amino]butanoyl}-10,10-dimethyl-7-azadispiro[3.0.4.1]decane-8-carboxamide] | 2150 | –
5 | C=C[C@@H]1C[C@]1(NC(=O)[C@@H]1C[C@@]2(CN1C(=O)[C@@H](NC(=O)[C@@H](NC(=O)N1CCN(C)CC1)C(C)(C)C)C(C)(C)C)C(C)(C)C21CCC1)C(=O)NS(=O)(=O)C1CC1 [Compound 55, (5R,8S)-N-{(1R,2S)-1-[(cyclopropylsulfonyl)carba-moyl]-2-vinylcyclopropyl}-7-[(2S)-2-{[(2S)-3,3-dimethyl-2-{[(4-methylpiperazin-1-yl)carbonyl]amino}butanoyl]amino}-3,3-dimethylbutanoyl]-10,10-dimethyl-7-azadispiro[3.0.4.1]decane-8-carboxamide] | – | 25

Second part, led by results:

Row | IC50 (read-out: Protease IC50) [nM] | SMILES | IC50 (Protease IC50) [nM]
6 | 150 | C=C[C@@H]1C[C@]1(NC(=O)[C@@H]1C[C@@]2(CN1C(=O)[C@@H](NC(=O)[C@@H](NS(=O)(=O)c1ccccc1)C(C)(C)C)C(C)(C)C)C(C)(C)C21CCC1)C(=O)NS(=O)(=O)C1CC1 [Compound 46, (5R,8S)-N-{(1R,2S)-1-[(cyclopropylsulfonyl)carba-moyl]-2-vinylcyclopropyl}-7-[(2S)-2-({(2S)-3,3-dimethyl-2-[(phenylsulfonyl)amino]butanoyl}amino)-3,3-dimethylbutanoyl]-10,10-dimethyl-7-azadispiro[3.0.4.1]decane-8-carboxamide] | –
7 | 65 | C=C[C@@H]1C[C@]1(NC(=O)[C@@H]1C[C@@]2(CN1C(=O)[C@@H](NC(=O)[C@@H](NS(C)(=O)=O)C(C)(C)C)C(C)(C)C)C(C)(C)C21CCC1)C(=O)NS(=O)(=O)C1CC1 [Compound 47, (5R,8S)-N-{(1R,2S)-1-[(cyclopropylsulfonyl)carba-moyl]-2-vinylcyclopropyl}-7-[(2S)-2-({(2S)-3,3-dimethyl-2-[(methylsulfonyl)amino]butanoyl}amino)-3,3-dimethylbutanoyl]-10,10-dimethyl-7-azadispiro[3.0.4.1]decane-8-carboxamide] | –
8 | 95 | C=C[C@@H]1C[C@]1(NC(=O)[C@@H]1C[C@@]2(CN1C(=O)[C@@H](NC(=O)[C@@H](NS(=O)(=O)N(C)C)C(C)(C)C)C(C)(C)C)C(C)(C)C21CCC1)C(=O)NS(=O)(=O)C1CC1 [Compound 48, (5R,8S)-N-{(1R,2S)-1-[(cyclopropylsulfonyl)carba-moyl]-2-vinylcyclopropyl}-7-[(2S)-2-{[(2S)-2-{[(dimethylamino)sulfonyl]amino}-3,3-dimethylbutanoyl]amino}-3,3-dimethylbutanoyl]-10,10-dimethyl-7-azadispiro[3.0.4.1]decane-8-carboxamide] | –
9 | 200 | C=C[C@@H]1C[C@]1(NC(=O)[C@@H]1C[C@@]2(CN1C(=O)[C@@H](NC(=O)[C@@H](NS(=O)(=O)c1ncn[nH]1)C(C)(C)C)C(C)(C)C)C(C)(C)C21CCC1)C(=O)NS(=O)(=O)C1CC1 [Compound 49, (5R,8S)-N-{(1R,2S)-1-[(cyclopropylsulfonyl)carba-moyl]-2-vinylcyclopropyl}-7-[(2S)-2-({(2S)-3,3-dimethyl-2-[(1H-1,2,4-triazol-5-ylsulfonyl)amino]butanoyl}amino)-3,3-dimethylbutanoyl]-10,10-dimethyl-7-azadispiro[3.0.4.1]decane-8-carboxamide] | –
10 | 20 | C=C[C@@H]1C[C@]1(NC(=O)[C@@H]1C[C@@]2(CN1C(=O)[C@@H](NC(=O)[C@@H](NS(=O)(=O)Cc1ccccc1)C(C)(C)C)C(C)(C)C)C(C)(C)C21CCC1)C(=O)NS(=O)(=O)C1CC1 [Compound 50, (5R,8S)-7-[(2S)-2-({(2S)-2-[(benzylsulfonyl)amino]-3,3-dimethylbutanoyl}amino)-3,3-dimethylbutanoyl]-N-{(1R,2S)-1-[(cyclopropylsulfonyl)carba-moyl]-2-vinylcyclopropyl}-10,10-dimethyl-7-azadispiro[3.0.4.1]decane-8-carboxamide] | –
11 | 250 | C=C[C@@H]1C[C@]1(NC(=O)[C@@H]1C[C@@]2(CN1C(=O)[C@@H](NC(=O)[C@@H](NS(=O)(=O)c1c(C)noc1C)C(C)(C)C)C(C)(C)C)C(C)(C)C21CCC1)C(=O)NS(=O)(=O)C1CC1 [Compound 51, (5R,8S)-N-{(1R,2S)-1-[(cyclopropylsulfonyl)carba-moyl]-2-vinylcyclopropyl}-7-[(2S)-2-{[(2S)-2-{[(3,5-dimethylisoxazol-4-yl)sulfonyl]amino}-3,3-dimethylbutanoyl]amino}-3,3-dimethylbutanoyl]-10,10-dimethyl-7-azadispiro[3.0.4.1]decane-8-carboxamide] | –
12 | 200 | C=C[C@@H]1C[C@]1(NC(=O)[C@@H]1C[C@@]2(CN1C(=O)[C@@H](NC(=O)[C@@H](NS(=O)(=O)c1cn(C)cn1)C(C)(C)C)C(C)(C)C)C(C)(C)C21CCC1)C(=O)NS(=O)(=O)C1CC1 [Compound 52, (5R,8S)-N-{(1R,2S)-1-[(cyclopropylsulfonyl)carba-moyl]-2-vinylcyclopropyl}-7-[(2S)-2-{[(2S)-3,3-dimethyl-2-{[(1-methyl-1H-imidazol-4-yl)sulfonyl]amino}butanoyl]amino}-3,3-dimethylbutanoyl]-10,10-dimethyl-7-azadispiro[3.0.4.1]decane-8-carboxamide] | –
